Test results published in paper PMC11110727, “Exploiting thiol-functionalized benzosiloxaboroles for achieving diverse substitution patterns – synthesis, characterization and biological evaluation of promising antibacterial agents” (RSC Medicinal Chemistry, 2024).
≈ marks a conversion by molar mass, not a printed value.

What was measured:
[1] = system: S. aureus ATCC 6538P; test: Antibacterial activity: MIC/MBC determination and disc-diffusion; type: cell-based, Staphylococcus aureus; settings: S. aureus ATCC 6538P; for diameter of inhibition zone: disc-diffusion, — = zone not observed; for MIC / MBC: Staphylococcus aureus, ATCC6538P; for MIC: read-out: MIC; for MBC: read-out: MBC (first MBC where Eagle effect)
Experimental: (§1) Direct antimicrobial activity was determined against the following standard strains: (1) Gram-positive cocci: methicillin-sensitive Staphylococcus aureus ATCC 6538P (MSSA), methicillin-resistant S. aureus subsp. aureus ATCC 43300 (MRSA), S. epidermidis ATCC 12228, Enterococcus faecium ATCC 6057, E. faecalis ATCC 29212, Bacillus subtilis ATCC 6633; (2) Gram-negative bacteria from Enterobacteriales order: Klebsiella pneumoniae ATCC 13883, Escherichia coli ATCC 25922, Enterobacter cloacae DSM 6234, Proteus mirabilis ATCC 12453, Serratia marcescens ATCC 13880; (3) Gram-negative non-fermentative rods: Acinetobacter baumannii ATCC 19606, Pseudomonas aeruginosa ATCC 27853, Stenotrophomonas maltophilia ATCC 12714, S. maltophilia ATCC 13637, Burkholderia cepacia ATCC 25416, Bordetella bronchiseptica ATCC 4617; (4) yeasts: Candida albicans ATCC 90028, C. krusei ATCC 6258, C. parapsilosis ATCC 22019, C. tropicalis (Castellani) Berkhout ATCC 750, C. tropicalis IBA 171, C. guilliermondii IBA 155, and Saccharomyces cerevisiae ATCC 9763. Moreover, 5 clinical strains of methicillin-resistant S. aureus were also included: NMI 664 K, NMI 1576 K, NMI 1712 K, NMI 1991 K, and NMI 2541 K. All strains were stored at −80 °C. Prior to testing, each bacterial strain was subcultured twice on tryptic soy agar TSA (bioMerieux) medium and yeast strains on Sabouraud dextrose agar (bioMerieux) for 24–48 h at 30 °C to ensure viability. The antimicrobial activity was evaluated as previously described[26] by the disc-diffusion method and the MIC determination assays according to the EUCAST (ref. [71] and [72]) and CLSI (ref. [53] and [73]) recommendations. Assessment of bactericidal (MBC) and fungicidal (MFC) activities was performed according to the CLSI recommendations.[54,74] The following reference agents were used: fluconazole (in the case of fungi), linezolid (for Gram-positive bacteria), and nitrofurantoin (for Gram-negative rods). The new benzosiloxaboroles were dissolved in DMSO (Sigma).

[2] = system: E. faecalis ATCC 29212; test: as above; type: cell-based; settings: Enterococcus faecalis, ATCC29212, E. faecalis ATCC 29212; for MIC: read-out: MIC
Experimental: as §1

[3] = system: E. faecium ATCC 6057; test: as above; type: cell-based; settings: Enterococcus faecium, ATCC6057, E. faecium ATCC 6057; for MIC: read-out: MIC
Experimental: as §1

[4] = system: S. aureus ATCC 43300 MRSA; test: as above; type: cell-based; settings: Staphylococcus aureus, S. aureus ATCC 43300 MRSA; for MIC: read-out: MIC
Experimental: as §1

[5] = system: S. epidermidis ATCC 12228; test: as above; type: cell-based; settings: Staphylococcus epidermidis, ATCC12228, S. epidermidis ATCC 12228; for MIC: read-out: MIC
Experimental: as §1

[6] = system: E. cloacae DSM 6234; test: Antibacterial activity: MIC/MBC, MIC with PAβN, disc-diffusion; type: cell-based, Enterobacter cloacae; settings: Enterobacter cloacae, DSM6234; E. cloacae DSM 6234; read-out: MIC
Experimental: as §1, with “The following reference agents were used: fluconazole (in the case of fungi), linezolid (for Gram-positive bacteria), and nitrofurantoin (for Gram-negative rods).” left out
(§2) Considering that the MDR efflux pumps often contribute to Gram-negative rod resistance, the MIC values of studied agents, with or without the pump inhibitor, PAβN (20 μg mL^−1) (Sigma), were determined.[75] The MIC was determined using Mueller–Hinton II broth medium (MHB) (Becton Dickinson) by the broth microdilution method, according to the CLSI guideliness.[53] To minimize the influence of PAβN on the destabilization of bacterial cell covers, the tests were conducted in the presence of 1 mM MgSO4 (Sigma).[76] At least a 4-fold reduction in the MIC value after the addition of PAβN was considered significant.[56,77]

[7] = system: A. baumannii ATCC 19606; test: as above; type: cell-based, Acinetobacter baumannii; settings: Acinetobacter baumannii, ATCC19606; A. baumannii ATCC 19606; read-out: MIC
Experimental: as §1, with “The following reference agents were used: fluconazole (in the case of fungi), linezolid (for Gram-positive bacteria), and nitrofurantoin (for Gram-negative rods).” left out
as §2

[8] = system: P. aeruginosa ATCC 27853; test: as above; type: cell-based; settings: Pseudomonas aeruginosa, ATCC27853; P. aeruginosa ATCC 27853; read-out: MIC
Experimental: as §1, with “The following reference agents were used: fluconazole (in the case of fungi), linezolid (for Gram-positive bacteria), and nitrofurantoin (for Gram-negative rods).” left out
as §2

[9] = system: S. maltophilia ATCC 12714; test: as above; type: cell-based, Stenotrophomonas maltophilia; settings: Stenotrophomonas maltophilia, ATCC12714; S. maltophilia ATCC 12714; read-out: MIC
Experimental: as §1, with “The following reference agents were used: fluconazole (in the case of fungi), linezolid (for Gram-positive bacteria), and nitrofurantoin (for Gram-negative rods).” left out
as §2

[10] = system: C. krusei ATCC 6258; test: Antifungal activity: MIC/MFC, disc-diffusion; type: cell-based; settings: for MIC: Pichia kudriavzevii, ATCC6258, read-out: MIC
Experimental: as §1, with “The following reference agents were used: fluconazole (in the case of fungi), linezolid (for Gram-positive bacteria), and nitrofurantoin (for Gram-negative rods).” left out

C[Si]1(C)OB(O)c2cc(F)c(SCCC(=O)ON3C(=O)CCC3=O)c(F)c21 [Compound 5, 2,5-Dioxopyrrolidin-1-yl 3-((5,7-difluoro-3-hydroxy-1,1-dimethyl-1,3-dihydrobenzo-[c][1,2,5]oxasilaborol-6-yl)thio)propanoate]
diameter of inhibition zone [1]: 15 mm | MIC [1]: 400 µg/mL (≈ 963 µM) | MIC [2]: 400 µg/mL (≈ 963 µM) | MIC [3]: 400 µg/mL (≈ 963 µM) | MIC [4]: 400 µg/mL (≈ 963 µM) | MIC [5]: 400 µg/mL (≈ 963 µM) | MIC [6]: > 400 µg/mL | MIC [7]: > 400 µg/mL | MIC [8]: > 400 µg/mL | MIC [9]: > 400 µg/mL | MIC [10]: > 400 µg/mL

CC(=O)CCSc1c(F)cc2c(c1F)[Si](C)(C)OB2O [Compound 3, 4-((5,7-Difluoro-3-hydroxy-1,1-dimethyl-1,3-dihydrobenzo[c][1,2,5]oxasilaborol-6-yl)thio)butan-2-one]
diameter of inhibition zone [1]: 23 mm | MBC [1]: 100 µg/mL (≈ 316 µM) | MIC [1]: 50 µg/mL (≈ 158 µM) | MBC [2]: 200 µg/mL (≈ 632 µM) | MIC [2]: 25 µg/mL (≈ 79.1 µM) | MBC [3]: 200 µg/mL (≈ 632 µM) | MIC [3]: 12.5 µg/mL (≈ 39.5 µM) | MBC ([4]; read-out: MBC (first MBC where Eagle effect)): 200 µg/mL (≈ 632 µM) | MIC [4]: 50 µg/mL (≈ 158 µM) | MBC [5]: 200 µg/mL (≈ 632 µM) | MIC [5]: 25 µg/mL (≈ 79.1 µM) | MIC [6]: > 400 µg/mL | MIC [7]: > 400 µg/mL | MIC [8]: > 400 µg/mL | MIC [9]: 200 µg/mL (≈ 632 µM) | MIC [10]: 200 µg/mL (≈ 632 µM)

C[Si]1(C)OB(O)c2ccc(SC3CC(=O)N(c4ccc(F)cc4)C3=O)c(F)c21 (centres unmarked) [Compound 15, 3-((7-Fluoro-3-hydroxy-1,1-dimethyl-1,3-dihydrobenzo[c][1,2,5]oxasilaborol-6-yl)thio)-1-(4-fluorophenyl)pyrrolidine-2,5-dione]
diameter of inhibition zone [1]: 23 mm | MIC [1]: 25 µg/mL (≈ 59.6 µM) | MIC [2]: 12.5 µg/mL (≈ 29.8 µM) | MIC [3]: 25 µg/mL (≈ 59.6 µM) | MIC [4]: 25 µg/mL (≈ 59.6 µM) | MIC [5]: 12.5 µg/mL (≈ 29.8 µM) | MIC [6]: > 200 µg/mL | MIC [7]: > 200 µg/mL | MIC [8]: > 200 µg/mL | MIC [9]: > 200 µg/mL | diameter of inhibition zone ([10]; C. krusei ATCC 6258, (-) = zone not observed, paper discs 9 mm): 29 mm | MIC [10]: 25 µg/mL (≈ 59.6 µM)

C[Si]1(C)OB(O)c2cc(F)c(S(=O)(=O)N3CCOCC3)c(F)c21 [Compound 29, 5,7-Difluoro-1,1-dimethyl-6-(morpholinosulfonyl)benzo[c][1,2,5]oxasilaborol-3(1H)-ol]
diameter of inhibition zone [1]: 16 mm | MBC [1]: 400 µg/mL (≈ 1100 µM) | MIC [1]: 200 µg/mL (≈ 551 µM) | MIC [2]: > 400 µg/mL | MIC [3]: 400 µg/mL (≈ 1100 µM) | MIC [4]: 400 µg/mL (≈ 1100 µM) | MIC [5]: 400 µg/mL (≈ 1100 µM) | MIC [6]: > 400 µg/mL | MIC [7]: > 400 µg/mL | MIC [8]: > 400 µg/mL | MIC [9]: > 400 µg/mL
